Assay results reported in patent US8399676B2, “Piperidine derivatives” (Hoffman-La Roche Inc., priority 2009, dated 2013).
Where a name gives a salt, the structure may show the parent alone.

molecular target: T1, human HSL (Homo sapiens, UniProt Q05469); test: Human Hormone-Sensitive Lipase (HSL) enzyme inhibition assay (colorimetric, DMPT substrate); type: biochemical; conditions: read-out: HSL hum IC50
T1 construct: generate a full length human HSL ORF with a 3′-His6 tag; His6 (C); made in house; host or cells: High 5 insect cells (baculovirus, pFast-BAC)
T1 sequence (Q05469 1-1076): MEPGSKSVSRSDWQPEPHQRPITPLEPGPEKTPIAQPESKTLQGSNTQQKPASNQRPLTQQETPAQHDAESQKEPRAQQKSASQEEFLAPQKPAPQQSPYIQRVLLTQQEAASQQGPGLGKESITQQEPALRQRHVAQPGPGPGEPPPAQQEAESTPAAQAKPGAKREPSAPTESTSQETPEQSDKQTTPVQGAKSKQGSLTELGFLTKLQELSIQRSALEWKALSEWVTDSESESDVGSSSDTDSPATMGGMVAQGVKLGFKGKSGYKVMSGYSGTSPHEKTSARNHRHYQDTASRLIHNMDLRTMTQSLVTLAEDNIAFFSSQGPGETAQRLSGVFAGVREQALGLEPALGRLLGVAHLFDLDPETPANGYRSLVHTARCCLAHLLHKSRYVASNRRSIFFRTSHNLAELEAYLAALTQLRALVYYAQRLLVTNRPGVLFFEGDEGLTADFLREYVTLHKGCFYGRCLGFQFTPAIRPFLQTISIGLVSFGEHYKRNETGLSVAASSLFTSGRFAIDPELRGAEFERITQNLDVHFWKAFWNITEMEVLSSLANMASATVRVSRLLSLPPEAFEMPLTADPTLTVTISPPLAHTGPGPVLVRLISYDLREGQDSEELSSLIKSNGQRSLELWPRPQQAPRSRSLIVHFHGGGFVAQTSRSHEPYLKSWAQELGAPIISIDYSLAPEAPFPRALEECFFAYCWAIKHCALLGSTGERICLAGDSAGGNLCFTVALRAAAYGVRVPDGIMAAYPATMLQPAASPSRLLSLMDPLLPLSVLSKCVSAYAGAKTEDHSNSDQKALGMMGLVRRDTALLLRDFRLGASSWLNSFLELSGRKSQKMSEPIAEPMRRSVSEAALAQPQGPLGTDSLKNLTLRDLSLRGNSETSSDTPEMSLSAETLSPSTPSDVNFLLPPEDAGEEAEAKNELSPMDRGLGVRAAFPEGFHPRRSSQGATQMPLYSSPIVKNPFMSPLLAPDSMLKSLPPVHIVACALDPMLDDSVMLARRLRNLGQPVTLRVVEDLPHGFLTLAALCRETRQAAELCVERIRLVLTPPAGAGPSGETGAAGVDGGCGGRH
Protocol: Production of Human Full Length Hormone Sensitive Lipase-His^6
1) Cloning: cDNA was prepared from commercial human brain polyA+ RNA and used as a template in overlapping PCR to generate a full length human HSL ORF with a 3′-His6 tag. This full length insert was cloned into the pFast-BAC vector and the DNA-sequence of several single clones was verified. DNA from a correct full length clone with the 3′His6 tag was used to transform the E. coli strain DH10BAC. Resulting bacmid DNA was used to generate a titered baculovirus stock for protein generation. The sequence of the encoded HSL conforms to Swissprot entry Q05469, with the additional C-terminal His6-tag.
2) Protein purification: Culture: 5.5 L, High 5 cells expressing human full length HSL-His^6, 48 hr., containing 25 μM E-64. Cell count: […], 90% viable.
Cells were thawed. On ice, cells were suspended in Base Buffer containing 10% glycerol, 25 mM Tris-Cl, 300 mM NaCl, 10 mM imidazole, 10 mM 2-mercaptoethanol, 2 μg pepstatin/ml, 2 μg leupeptin/ml, 2 μg antipain/ml, pH 8.0 at 4° C. in a final volume of 475 ml with 3.75×10^7 cells/ml. […] was done at 3×30 sec., Lubrol PX was added to 0.2% final concentration followed by stirring for 15 min. at 4° C. and centrifugation at 25 k×g, 60 min., 4° C. Soluble proteins were mixed with 60 ml of pre-washed and equilibrated Ni-NTA Agarose (Qiagen 30210) followed by tumbling end-over-end, 45 min., 4° C., centrifugation 1000 rpm 5 min and letting resin settle 5 min. Supernatant was removed, the resin washed in the centrifuge vessel using 5 volumes of Base Buffer containing 0.2% Lubrol PX. Centrifugation was done again, then the supernatant discarded. The resin was poured onto a 0.8 μm membrane in a disposable filter unit (Nalge 450-0080), and washed with 5 volumes of Base Buffer containing 0.2% Lubrol PX. It was then washed with 30 volumes of Base Buffer containing 60 mM imidazole pH 7.5 at 4° C. The protein was eluted with 5 volumes of 25 mM Tris-Cl, 300 mM NaCl, 200 mM imidazole, 10 mM 2-mercaptoethanol, pH 7.5 at 4° C. by tumbling resin with buffer end-over-end, 30 min., 4° C. The resin was captured on a 0.2 μm membrane disposable filter unit (Millipore SCGP U02 RE) and the elute collected in the reservoir. The elute was concentrated using a 30 k MWCO centrifugal filter device (Sartorius Vivascience Vivacell 100, VC1022), to 20 ml. It was then dialyzed overnight at 4° C., two times against 2 L of 10% glycerol, 25 mM Tris-Cl, 300 mM NaCl, 0.2 mM EDTA, 0.2 mM DTT, pH 7.5 at 4° C. The protein was filtered using a 0.22 μm disposable filter unit (Millipore SCGP00525). The protein concentration was calculated from absorbance at 280 nm, using 280=0.67 cm-1 mg-1. Yield was 235 mg, total. The protein was stored at −80° C. Human Hormone-Sensitive Lipase (HSL) enzyme inhibition assay:
HSL enzyme activity was measured by a colorimetric assay using 2,3-dimercapto-1-propanol tributyrate (Aldrich, St. Louis, Mo.) as a substrate. Typically, 1.5 mM 2,3-dimercapto-1-propanol tributyrate (DMPT) in 100 mM MOPS, pH 7.2, 0.2 mg/ml fatty acid-free BSA was prepared by sonication at 4° C. to homogenous suspension. Test compounds (2 mM stock in DMSO) were diluted 3 fold in series in DMSO. Compound solutions were diluted 24 fold in 1.5 mM DMPT containing solution and 18 ul per well was added to 384-well microplates (Corning Costar). Twelve microliters per well of human HSL (15 ug/ml) was added and the reaction mixture was incubated at 37° C. for 20 minutes. Six microliters of 12 mM dithio-bis-(2-nitrobenzoic acid) (DTNB) in DMSO plus 1.2% SDS and 0.6% Triton X-100 were added and the mixture was incubated at room temperature for 15 minutes. Product production was monitored by reading absorbance at 405 nm on an Envision Reader (PerkinElmer Life and Analytical Sciences, Shelton, Conn.).

IC50 [nM]	Structure (SMILES)
70	Cc1ccc(S(=O)(=O)N2CCC(N)(C(=O)Nc3ccc(C(C)C)cc3)CC2)cc1 [Example 78, 4-Amino-1-(toluene-4-sulfonyl)-piperidine-4-carboxylic acid (4-isopropyl-phenyl)-amide; hydrochloride]
490	CN(C(=O)C1(O)CCN(S(=O)(=O)CC(C)(C)C)CC1)c1ccc(OC(F)(F)F)cc1 [Example 65, 1-(2,2-Dimethyl-propane-1-sulfonyl)-4-hydroxy-piperidine-4-carboxylic acid methyl-(4-trifluoromethoxy-phenyl)-amide]
50	CC(C)Oc1ccc(NC(=O)C2(N)CCN(S(=O)(=O)c3ccccc3Cl)CC2)cc1 [Example 96, 4-Amino-1-(2-chloro-benzenesulfonyl)-piperidine-4-carboxylic acid (4-isopropoxy-phenyl)-amide]
80	CC(C)c1ccc(NC(=O)C2(N)CCN(Cc3ccccc3F)CC2)cc1 [Example 109, 4-Amino-1-(2-fluoro-benzyl)-piperidine-4-carboxylic acid (4-isopropyl-phenyl)-amide; hydrochloride]
190	CC(C)Oc1ccc(NC(=O)C2(O)CCN(S(=O)(=O)c3ccccc3Cl)CC2)cc1 [Example 13, 1-(2-Chloro-benzenesulfonyl)-4-hydroxy-piperidine-4-carboxylic acid (4-isopropoxy-phenyl)-amide]
150	CCc1ccc(NC(=O)C2(N)CCN(C(c3ccccc3)c3ccccc3)CC2)cc1 [Example 159, 4-Amino-1-benzhydryl-piperidine-4-carboxylic acid (4-ethyl-phenyl)-amide]
410	CC(C)(C)c1ccc(NC(=O)C2(O)CCN(C(=O)Nc3ccc(C(F)(F)F)cc3)CC2)cc1 [Example 15, 4-Hydroxy-piperidine-1,4-dicarboxylic acid 4-[(4-tert-butyl-phenyl)-amide] 1-[(4-trifluoromethyl-phenyl)-amide]]
80	CCc1ccc(NC(=O)C2(N)CCN(Cc3ccccc3OC(F)(F)F)CC2)cc1 [Example 156, 4-Amino-1-(2-trifluoromethoxy-benzyl)-piperidine-4-carboxylic acid (4-ethyl-phenyl)-amide]
140	Cc1ccc(S(=O)(=O)N2CCC(O)(C(=O)N(C)c3ccc(OC(F)(F)F)cc3)CC2)cc1 [Example 69, 4-Hydroxy-1-(toluene-4-sulfonyl)-piperidine-4-carboxylic acid methyl-(4-trifluoromethoxy-phenyl)-amide]
40	CCc1ccc(NC(=O)C2(N)CCN(S(=O)(=O)c3ccccc3Cl)CC2)cc1 [Example 93, 4-Amino-1-(2-chloro-benzenesulfonyl)-piperidine-4-carboxylic acid (4-ethyl-phenyl)-amide]
310	CCc1ccc(NC(=O)C2(N)CCN(S(=O)(=O)c3ccc(OC(F)(F)F)cc3)CC2)cc1 [Example 138, 4-Amino-1-(4-trifluoromethoxy-benzenesulfonyl)-piperidine-4-carboxylic acid (4-ethyl-phenyl)-amide]
90	CC(C)c1ccc(NC(=O)C2(O)CCN(S(=O)(=O)c3ccccc3Cl)CC2)cc1 [Example 7, 1-(2-Chloro-benzenesulfonyl)-4-hydroxy-piperidine-4-carboxylic acid (4-isopropyl-phenyl)-amide]
600	CC(C)Oc1ccc(NC(=O)C2(O)CCN(Cc3ccc(OC(F)(F)F)cc3)CC2)cc1 [Example 14, 4-Hydroxy-1-(4-trifluoromethoxy-benzyl)-piperidine-4-carboxylic acid (4-isopropoxy-phenyl)-amide]
80	CCc1ccc(NC(=O)C2(N)CCN(S(=O)(=O)c3ccc(OC)cc3)CC2)cc1 [Example 139, 4-Amino-1-(4-methoxy-benzenesulfonyl)-piperidine-4-carboxylic acid (4-ethyl-phenyl)-amide]
530	COC1(C(=O)Nc2ccc(C(C)(C)C)cc2)CCN(S(=O)(=O)c2ccccc2Cl)CC1 [Example 76, 1-(2-Chloro-benzenesulfonyl)-4-methoxy-piperidine-4-carboxylic acid (4-tert-butyl-phenyl)-amide]
810	CC(C)(C)CC(=O)N1CCC(O)(C(=O)Nc2ccc(OC(F)(F)F)cc2)CC1 [Example 51, 1-(3,3-Dimethyl-butyryl)-4-hydroxy-piperidine-4-carboxylic acid (4-trifluoromethoxy-phenyl)-amide]
840	COc1ccc(Cl)cc1NC(=O)N1CCC(O)(C(=O)Nc2ccc(C(C)(C)C)cc2)CC1 [Example 50, 4-Hydroxy-piperidine-1,4-dicarboxylic acid 4-[(4-tert-butyl-phenyl)-amide] 1-[(5-chloro-2-methoxy-phenyl)-amide]]
660	CC(C)CC(=O)N1CCC(N)(C(=O)Nc2ccc(C(C)C)cc2)CC1 [Example 128, 4-Amino-1-(3-methyl-butyryl)-piperidine-4-carboxylic acid (4-isopropyl-phenyl)-amide]
130	CCc1ccc(NC(=O)C2(N)CCN(S(=O)(=O)c3ccccc3C(F)(F)F)CC2)cc1 [Example 145, 4-Amino-1-(2-trifluoromethyl-benzenesulfonyl)-piperidine-4-carboxylic acid (4-ethyl-phenyl)-amide]
300	CC(C)c1ccc(NC(=O)C2(N)CCN(Cc3ccc(C(F)(F)F)cc3)CC2)cc1 [Example 112, 4-Amino-1-(4-trifluoromethyl-benzyl)-piperidine-4-carboxylic acid (4-isopropyl-phenyl)-amide; hydrochloride]
